Experimental data from patent publication US20100112061A1, “Monophosphates as Mutual Prodrugs of Muscarinic Receptor Antagonists and Beta-Agonists for the Treatment of COPD And Chronic Bronchitis” (priority 2006, published 2010).

What was measured:
alkaline phosphatase = alkaline phosphatase (Homo sapiens, UniProt P05187); test: Conversion of the mutual MRA-β-agonist prodrug to salmeterol and MRA after exposure to alkaline phosphatase in vitro (LCMS); type: in vitro ADME; details: for Formation of dipeptide (Sagara 2006) in ALP (Peak Area Ratio) Normalized / Formation of dipeptide (Sagara 2006) in ALP (Peak Area Ratio) mean: from prodrug Example 29; for Formation of dipeptide (Sagara 2006) in ALP (Peak Area Ratio) Normalized / Formation of dipeptide (Sagara 2006) in ALP (Peak Area Ratio) mean / Example 29 (GS-343071) in ALP (Peak Area Ratio) Normalized / Example 29 (GS-343071) in ALP (Peak Area Ratio) mean: alkaline phosphatase
Chain of alkaline phosphatase (P05187 23-506 limits assumed): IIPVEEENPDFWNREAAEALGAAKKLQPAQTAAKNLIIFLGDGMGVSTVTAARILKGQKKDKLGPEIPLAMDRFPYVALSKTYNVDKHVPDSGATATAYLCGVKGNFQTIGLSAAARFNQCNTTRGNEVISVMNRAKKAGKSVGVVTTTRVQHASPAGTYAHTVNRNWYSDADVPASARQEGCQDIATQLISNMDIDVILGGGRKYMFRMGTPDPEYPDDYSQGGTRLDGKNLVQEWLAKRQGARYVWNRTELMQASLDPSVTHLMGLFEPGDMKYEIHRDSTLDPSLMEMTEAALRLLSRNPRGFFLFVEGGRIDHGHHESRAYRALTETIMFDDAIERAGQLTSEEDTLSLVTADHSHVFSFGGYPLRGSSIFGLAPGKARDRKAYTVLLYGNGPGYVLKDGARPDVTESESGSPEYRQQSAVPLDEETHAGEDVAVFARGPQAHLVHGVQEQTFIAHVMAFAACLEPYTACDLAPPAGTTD
Experimental: Conversion of the Mutual MRA-β-Agonist Prodrug (Described in Example 29) to Salmeterol and MRA after Exposure to Alkaline Phosphatase In Vitro
(§1) Reaction Buffer (pH 7.4, 5 mM tris/1 mM Mg^2+/1 mM Zn^2+)
(§2) Diluted 5 ml of 50 mM tris stock, 1 ml of 50 mM MgCl2 stock, and 1 ml of ZnCl2 and then stocked to 10 ml with water.
Alkaline Phosphatase Stock Solution […]
Dissolved ˜2 mg of the mutual prodrug of invention in 10 ml 1:1 acetonitrile/water.
Reaction Product Stock Solution
Dissolved ˜2 mg of each MRA and β-agonist in 20 ml 1:1 acetonitrile/water
The stock solutions were mixed in microcentrifuge tubes, as depicted in the following Table:
(§3) The heat block was set at the 37 degrees. Then 0.5 mL of alkaline phosphatase solution was added into 4 preheated Eppendorf tubes. The aliquot 0.5 of prodrug and drug standards were added into preheated Eppendorf tubes. Immediately after vortexing the aliquots of 25 μL of the all reaction solutions were made into the respective 96-well plate positions. The internal standard (75 μl of 500 ng/mL Glyburide) was added into all samples after each aliquots. That procedure was repeated at every 15 minute intervals for ˜4-5 hrs.
The 96-well plates were then analyzed using the LCMS technique.
Half Life Calculation (t1/2)
(§4) In the calculation of half life, we assumed that the disappearance of the mutual prodrug of this invention followed first order kinetics. Therefore,
(§5) The area peak ratio of prodrug vs IS was plotted against time first; the peak area ratios of later time points were normalized with the peak area ratio of initial time point (ASAP). The natural log of the normalized ratio was then plotted against time to generate a linear curve. The slope of this linear curve k was used for the following calculation.
Graphic plotted rate constant of loss K
Drug Concentration Determination
Drug concentrations are calculated by normalizing the peak area ration to (t 0). Thus, calculated drug concentrations at any time point=normalized peak area ratio [t (0) mean/t mean]×initial drug concentration. Data (normalized peak area ratio) for the calculations of drug concentrations are listed in Table 1 and 2 for compounds in Example 29 (GS343071), salmeterol, and the dipeptide (M3 antagonist prepared by Sagara 2006).

[1] = Half life of the prodrug in reaction buffer only (no alkaline phosphatase); type: physicochemical; details: reaction buffer without alkaline phosphatase; reaction buffer pH 7.4, no alkaline phosphatase
Experimental: as §1, §2
as §3, with “Then 0.5 mL of alkaline phosphatase solution was added into 4 preheated Eppendorf tubes.” left out
as §4, §5

CN1CCC(CNC(=O)[C@H]2CCCN2C(=O)[C@@H]2CC(O)CN2C(=O)CC(c2ccc(F)cc2)(c2ccc(F)cc2)c2ccc(F)cc2)CC1 (stereo partly drawn) [dipeptide (Sagara 2006), 1-{4-hydroxy-1-[3,3,3-tris-(4-fluoro-phenyl)-propionyl]-pyrrolidine-(S)-2-carbonyl}-pyrrolidine-(R)-2-carboxylic acid-(1-methyl-piperidin-4-ylmethyl)-amide, reference compound]
Formation of dipeptide (Sagara 2006) in ALP (Peak Area Ratio) Normalized (alkaline phosphatase; Time 0 mins, 37 degrees): 1.0000
Formation of dipeptide (Sagara 2006) in ALP (Peak Area Ratio) mean (alkaline phosphatase; Time 0 mins, 37 degrees): 0.1765
Formation of dipeptide (Sagara 2006) in ALP (Peak Area Ratio) Normalized (alkaline phosphatase; Time 15.0 mins, 37 degrees): 1.9830
Formation of dipeptide (Sagara 2006) in ALP (Peak Area Ratio) mean (alkaline phosphatase; Time 15.0 mins, 37 degrees): 0.3500
Formation of dipeptide (Sagara 2006) in ALP (Peak Area Ratio) Normalized (alkaline phosphatase; Time 30.0 mins, 37 degrees): 2.7365
Formation of dipeptide (Sagara 2006) in ALP (Peak Area Ratio) mean (alkaline phosphatase; Time 30.0 mins, 37 degrees): 0.4830
Formation of dipeptide (Sagara 2006) in ALP (Peak Area Ratio) Normalized (alkaline phosphatase; Time 45.0 mins, 37 degrees): 2.7989
Formation of dipeptide (Sagara 2006) in ALP (Peak Area Ratio) mean (alkaline phosphatase; Time 45.0 mins, 37 degrees): 0.4940
Formation of dipeptide (Sagara 2006) in ALP (Peak Area Ratio) Normalized (alkaline phosphatase; Time 60.0 mins, 37 degrees): 3.0595
Formation of dipeptide (Sagara 2006) in ALP (Peak Area Ratio) mean (alkaline phosphatase; Time 60.0 mins, 37 degrees): 0.5400
Formation of dipeptide (Sagara 2006) in ALP (Peak Area Ratio) Normalized (alkaline phosphatase; Time 75.0 mins, 37 degrees): 3.2210
Formation of dipeptide (Sagara 2006) in ALP (Peak Area Ratio) mean (alkaline phosphatase; Time 75.0 mins, 37 degrees): 0.5685
Formation of dipeptide (Sagara 2006) in ALP (Peak Area Ratio) Normalized (alkaline phosphatase; Time 90.0 mins, 37 degrees): 3.6402
Formation of dipeptide (Sagara 2006) in ALP (Peak Area Ratio) mean (alkaline phosphatase; Time 90.0 mins, 37 degrees): 0.6425
Formation of dipeptide (Sagara 2006) in ALP (Peak Area Ratio) Normalized (alkaline phosphatase; Time 105 mins, 37 degrees): 3.8612
Formation of dipeptide (Sagara 2006) in ALP (Peak Area Ratio) mean (alkaline phosphatase; Time 105 mins, 37 degrees): 0.6815
Formation of dipeptide (Sagara 2006) in ALP (Peak Area Ratio) Normalized (alkaline phosphatase; Time 120 mins, 37 degrees): 3.9207
Formation of dipeptide (Sagara 2006) in ALP (Peak Area Ratio) mean (alkaline phosphatase; Time 120 mins, 37 degrees): 0.6920
Formation of dipeptide (Sagara 2006) in ALP (Peak Area Ratio) Normalized (alkaline phosphatase; Time 135 mins, 37 degrees): 4.0793
Formation of dipeptide (Sagara 2006) in ALP (Peak Area Ratio) mean (alkaline phosphatase; Time 135 mins, 37 degrees): 0.7200
Formation of dipeptide (Sagara 2006) in ALP (Peak Area Ratio) Normalized (alkaline phosphatase; Time 150 mins, 37 degrees): 4.2890
Formation of dipeptide (Sagara 2006) in ALP (Peak Area Ratio) mean (alkaline phosphatase; Time 150 mins, 37 degrees): 0.7570
Formation of dipeptide (Sagara 2006) in ALP (Peak Area Ratio) Normalized (alkaline phosphatase; Time 165 mins, 37 degrees): 4.4193
Formation of dipeptide (Sagara 2006) in ALP (Peak Area Ratio) mean (alkaline phosphatase; Time 165 mins, 37 degrees): 0.7800
Formation of dipeptide (Sagara 2006) in ALP (Peak Area Ratio) Normalized (alkaline phosphatase; Time 180 mins, 37 degrees): 4.7082
Formation of dipeptide (Sagara 2006) in ALP (Peak Area Ratio) mean (alkaline phosphatase; Time 180 mins, 37 degrees): 0.8310
Formation of dipeptide (Sagara 2006) in ALP (Peak Area Ratio) Normalized (alkaline phosphatase; Time 210 mins, 37 degrees): 5.0227
Formation of dipeptide (Sagara 2006) in ALP (Peak Area Ratio) mean (alkaline phosphatase; Time 210 mins, 37 degrees): 0.8865
Formation of dipeptide (Sagara 2006) in ALP (Peak Area Ratio) Normalized (alkaline phosphatase; Time 240 mins, 37 degrees): 5.0567
Formation of dipeptide (Sagara 2006) in ALP (Peak Area Ratio) mean (alkaline phosphatase; Time 240 mins, 37 degrees): 0.8925
Formation of dipeptide (Sagara 2006) in ALP (Peak Area Ratio) Normalized (alkaline phosphatase; Time 270 mins, 37 degrees): 5.6997
Formation of dipeptide (Sagara 2006) in ALP (Peak Area Ratio) mean (alkaline phosphatase; Time 270 mins, 37 degrees): 1.0060

C[N+]1(Cc2cc(C(O)CNCCCCCCOCCCCc3ccccc3)ccc2OP(=O)(O)O)CCC(CNC(=O)[C@H]2CCCN2C(=O)[C@@H]2C[C@@H](O)CN2C(=O)CC(c2ccc(F)cc2)(c2ccc(F)cc2)c2ccc(F)cc2)CC1 (stereo partly drawn) [Example 29, 1-(5-{1-Hydroxy-2-[6-(4-phenyl-butoxy)-hexylamino]-ethyl}-2-phosphonooxy-benzyl)-4-{[(1-{4-hydroxy-1-[3,3,3-tris-(4-fluoro-phenyl)-propionyl]-pyrrolidine-(S)-2-carbonyl}-pyrrolidine-(R)-2-carbonyl)-amino]-methyl}-1-methyl-piperidinium]
Half Life t1/2 (alkaline phosphatase; ALP Enzyme Conc. 0.224 mg/mL, 37 degrees, first order kinetics assumed): 1.58 h
Calculated Compound Final Conc. (μM) at 270 mins. (alkaline phosphatase; Added Compound Initial Conc. 86.6 μM in Reaction Mixture, ALP Enzyme Conc. 0.443 mg/mL): 7.8 µM
Example 29 (GS-343071) in ALP (Peak Area Ratio) Normalized (alkaline phosphatase; Time 0 mins, 37 degrees): 1.0000
Example 29 (GS-343071) in ALP (Peak Area Ratio) mean (alkaline phosphatase; Time 0 mins, 37 degrees): 0.2030
Example 29 (GS-343071) in ALP (Peak Area Ratio) Normalized (alkaline phosphatase; Time 15.0 mins, 37 degrees): 0.5887
Example 29 (GS-343071) in ALP (Peak Area Ratio) mean (alkaline phosphatase; Time 15.0 mins, 37 degrees): 0.1195
Example 29 (GS-343071) in ALP (Peak Area Ratio) Normalized (alkaline phosphatase; Time 30.0 mins, 37 degrees): 0.4340
Example 29 (GS-343071) in ALP (Peak Area Ratio) mean (alkaline phosphatase; Time 30.0 mins, 37 degrees): 0.0881
Example 29 (GS-343071) in ALP (Peak Area Ratio) Normalized (alkaline phosphatase; Time 45.0 mins, 37 degrees): 0.3313
Example 29 (GS-343071) in ALP (Peak Area Ratio) mean (alkaline phosphatase; Time 45.0 mins, 37 degrees): 0.0673
Example 29 (GS-343071) in ALP (Peak Area Ratio) Normalized (alkaline phosphatase; Time 60.0 mins, 37 degrees): 0.2850
Example 29 (GS-343071) in ALP (Peak Area Ratio) mean (alkaline phosphatase; Time 60.0 mins, 37 degrees): 0.0579
Example 29 (GS-343071) in ALP (Peak Area Ratio) Normalized (alkaline phosphatase; Time 75.0 mins, 37 degrees): 0.2387
Example 29 (GS-343071) in ALP (Peak Area Ratio) mean (alkaline phosphatase; Time 75.0 mins, 37 degrees): 0.0485
Example 29 (GS-343071) in ALP (Peak Area Ratio) Normalized (alkaline phosphatase; Time 90.0 mins, 37 degrees): 0.2079
Example 29 (GS-343071) in ALP (Peak Area Ratio) mean (alkaline phosphatase; Time 90.0 mins, 37 degrees): 0.0422
Example 29 (GS-343071) in ALP (Peak Area Ratio) Normalized (alkaline phosphatase; Time 105 mins, 37 degrees): 0.2017
Example 29 (GS-343071) in ALP (Peak Area Ratio) mean (alkaline phosphatase; Time 105 mins, 37 degrees): 0.0410
Example 29 (GS-343071) in ALP (Peak Area Ratio) Normalized (alkaline phosphatase; Time 120 mins, 37 degrees): 0.1788
Example 29 (GS-343071) in ALP (Peak Area Ratio) mean (alkaline phosphatase; Time 120 mins, 37 degrees): 0.0363
Example 29 (GS-343071) in ALP (Peak Area Ratio) Normalized (alkaline phosphatase; Time 135 mins, 37 degrees): 0.1643
Example 29 (GS-343071) in ALP (Peak Area Ratio) mean (alkaline phosphatase; Time 135 mins, 37 degrees): 0.0334
Example 29 (GS-343071) in ALP (Peak Area Ratio) Normalized (alkaline phosphatase; Time 150 mins, 37 degrees): 0.1397
Example 29 (GS-343071) in ALP (Peak Area Ratio) mean (alkaline phosphatase; Time 150 mins, 37 degrees): 0.0284
Example 29 (GS-343071) in ALP (Peak Area Ratio) Normalized (alkaline phosphatase; Time 165 mins, 37 degrees): 0.1310
Example 29 (GS-343071) in ALP (Peak Area Ratio) mean (alkaline phosphatase; Time 165 mins, 37 degrees): 0.0266
Example 29 (GS-343071) in ALP (Peak Area Ratio) Normalized (alkaline phosphatase; Time 180 mins, 37 degrees): 0.1372
Example 29 (GS-343071) in ALP (Peak Area Ratio) mean (alkaline phosphatase; Time 180 mins, 37 degrees): 0.0279
Example 29 (GS-343071) in ALP (Peak Area Ratio) Normalized (alkaline phosphatase; Time 210 mins, 37 degrees): 0.1163
Example 29 (GS-343071) in ALP (Peak Area Ratio) mean (alkaline phosphatase; Time 210 mins, 37 degrees): 0.0236
Example 29 (GS-343071) in ALP (Peak Area Ratio) Normalized (alkaline phosphatase; Time 240 mins, 37 degrees): 0.0978
Example 29 (GS-343071) in ALP (Peak Area Ratio) mean (alkaline phosphatase; Time 240 mins, 37 degrees): 0.0199
Example 29 (GS-343071) in ALP (Peak Area Ratio) Normalized (alkaline phosphatase; Time 270 mins, 37 degrees): 0.0906
Example 29 (GS-343071) in ALP (Peak Area Ratio) mean (alkaline phosphatase; Time 270 mins, 37 degrees): 0.0184
half-life (alkaline phosphatase; human, pH 7.4, ALP Enzyme Conc. 0.224 mg/mL, 37 degrees, first order kinetics assumed, read-out: Half Life t1/2): 1.04 h
half-life at 86.6 μM (alkaline phosphatase; human, pH 7.4, ALP Enzyme Conc. 0.443 mg/mL, 37 degrees, first order kinetics assumed, read-out: Half Life t1/2): 0.72 h
half-life [1]: 12.8 h
